From patent publication US20260027073A1, “USE OF SMALL-MOLECULE COMPOUND HAVING NAPHTHYLAMINE STRUCTURE” (HANGZHOU PHECDAMED CO., LTD., priority 2023, published 2026)

Tests used:
[1] = tested on: rats with 5/6 nephrectomy; assay: 5/6 nephrectomy-induced renal injury; type: in vivo, SD rats
Method: 5/6 nephrectomy directly leads to a large reduction of renal units, high workload of residual renal units, and combined hypertension (or non-hypertension), and these features are similar to the symptoms of patients with clinical nephrectomy, CKD hypertensive syndrome, and solitary kidney, and like, and the pathological changes are dominated by glomerulosclerosis and tubulo-fibrosis, which is a good model for the study of CKD. The model was prepared as follows, 230-250 g male SD rats were anesthetized with isoflurane gas, and an incision of about 3 cm at 1 cm left and below of the cribriform ridge corner was made, fully exposing the left kidney, and after exposing the kidney in the sham group, the muscle and skin were sutured with sutures, during which there was no ligation and no resection. In the model group, about ⅓ of the cortex of the upper and lower left kidney was cut with ophthalmic surgical scissors, and was pressed with the absorbable gelatin sponge to stop bleeding for 3 min, then the hemostatic clip was released, and whether there is obvious bleeding was observed and the residual kidney was reset, and the muscle and skin were sutured with sutures. After 1 week, the second surgery was performed, and after fully exposing the right kidney, the renal pedicle and the ureter were ligated, and the right kidney was resected. Similarly, in the sham group, after exposing the kidney, the muscle and skin were sutured with sutures, during which there was no ligation and no resection. Penicillin (80 kU/rat) was routinely injected for three days after surgery. […] In the experiment, 10 d after the end of the right nephrectomy surgery, the serum creatinine level of rats increased, which was statistically significant compared to the sham group, and began to be administered in groups.
The experiments were conducted in sham group (exposing both kidneys without resection), Control group (model group, given vehicle treatment by oral gavage), and 15 mg/kg I-1 group (15 mg/kg by oral gavage), respectively, during the experimental period, a drug was administered once a day for a total of 27 days, and the 24-hour urine of the rats in each group was collected by metabolism cages on the 28th day to measure the volume of urine, urine creatinine, and urine protein. At the same time, blood was collected from the heart, and the blood was centrifuged at 12000 g for 10 min at 4° C. after standing at room temperature for 45 min, the supernatant (serum) was taken to measure the creatinine level in the serum, and finally the creatinine clearance was calculated. After euthanasia of rats at endpoint of the test, the kidneys were dissected and removed, in which four kidneys of rats were fixed with 4% paraformaldehyde for 48 h, paraffin-embedded, sectioned, and HE stained as described above.

[2] = tested on: LPS-induced acute lung injury mice; assay: Survival in LPS-induced acute lung injury; type: in vivo, C57 mice; conditions: 20 mg/kg intraperitoneal once a day; up to 9 days; FIG. 28
Method: The model was constructed as follows, male mice C57 aged 6-8 weeks and weighing 18-22 g were anesthetized and fixed, and then 20 mg/kg LPS (E.coil) was dissolved in 50 μl of PBS and dripped under direct laryngoscopic vision to form a model group. The experiment was divided into three groups, each having six mice, LPS group (model control group, airway drip of 50 μl LPS), LPS+20 mg/kg group (airway drip of 50 μl LPS, and given 20 mg/kg of TJ01-013 treatment), LPS+Sivelestat group (positive control group, airway drip of 50 μl LPS and given 5 mg/kg of Sivelestat treatment). The mode of administration was intraperitoneal injection, the volume of administration was 5 ml/kg, the frequency of administration was once a day, and the biological deaths and changes in body weights of the mice were observed and recorded every day, and the mice were regarded as physiologically dead if their body weights decreased by 20% or more compared with that before the administration of LPS. Survival curves were plotted based on deaths observed up to 9 days after administration.

[3] = tested on: rats of adenine induced kidney injury model; assay: Adenine-induced kidney injury; type: in vivo, SD rats; conditions: 15 mg/kg, 21 days; FIG. 12

Row | SMILES | 24 h urine protein content ([1]; 15 mg/kg oral gavage, 27 days, FIG. 6) | blood creatinine level ([1]; 15 mg/kg oral gavage, 27 days, P<0.001, FIG. 5) | body weight ([1]; 15 mg/kg oral gavage, 27 days, vs model group, P<0.05, FIG. 4) | degree of lesions in the renal tissues (HE staining) ([1]; 15 mg/kg, 27 days, FIG. 8) | creatinine clearance rate ([1]; 15 mg/kg, 27 days, vs model control, FIG. 7) | Renal lesions (number of kidneys, n = 4) ([1]; Degree of lesion +++ (severe lesions), 15 mg/kg) | Renal lesions (number of kidneys, n = 4) ([1]; Degree of lesion ± (slight lesions), 15 mg/kg) | Renal lesions (number of kidneys, n = 4) ([1]; Degree of lesion − (no lesions seen), 15 mg/kg) | survival rate [2] | IL-1β level in kidney tissues [3] | protection against 5/6 nephrectomy-induced renal injury compared with I-1 group ([1]; UMI-77 vs I-1)
1 | O=C(O)C[S+]([O-])c1cc(NS(=O)(=O)c2ccc(Br)cc2)c2ccccc2c1O (centres unmarked) [I-1] | significantly reduced | significantly reduced | significant increase | improved the degree of lesions | improvement trend | 0 | 0 | 0 | significantly elevated | tendency to be decreased | 
2 | O=C(O)CSc1cc(NS(=O)(=O)c2ccc(Br)cc2)c2ccccc2c1O [UMI-77, reference compound] |  |  |  |  |  |  |  |  |  |  | less protective
